Patent US20040038199A1, “Phenotyping assay and reagents therefor” (priority 2000, published 2004)
Where two headings read alike, the source gives them in different places.

Columns and labels:
Format in all cases: cell-based, HIV-1
[1] = tested on: Virus 1 (recombinant generated from plasma of Subject 1 by FPH or RVA); experiment: MTT-reduction cell viability drug susceptibility assay, recombinant Virus 1 (FPH or RVA); conditions: for EC50 / fold resistance: Table 3A; for EC50: read-out: Drug EC50; for fold resistance: relative to WT (HXB2)
Protocol: (§1) As previously discussed, recombinant virus produced by the method of the present invention may be used in drug sensitivity assays. A suitable drug sensitivity assay is described in Pauwels et al. (1988) and is an MTT-reduction colorimetric cell viability assay. Cells infected with the virus are plated into the wells of tissue culture plates and incubated with the anti-viral drug to be tested. After incubation, MTT (3-(4,5-dimethylthiazol-2-yl)-2,5diphenyltetrazolium bromide) is added to the cell culture. Only live cells produce the blue formazan product after incubation with MTT. This product is detectable by reading the optical absorbance at 540-590 nm, so the absorbance reading gives a measure of the cells which have been protected from the virus by the anti-viral drug. Viral drug resistance results in a decrease in surviving cells and a decrease in absorbance at 540-590 nm.
(§2) In this experiment, plasma from three HIV-1 infected subjects experiencing virological failure on PI-containing therapy regimens was used as the basis for the FPH to generate recombinant virus. […] Virus from Subject 2 had L10I, M46I, I50V and a Lp1′F mutation at the p1/p6 protease cleavage site, all of which are mutations typical of high level APV resistance.
(§3) The LTR was added to the nested products by PMR prior to transfection. The PMR reactions successfully added the LTR sequences to the nested products (FIG. 9). The first round RT-PCR reactions were also used as templates to generate products for RVA by cotransfection with pHXBΔCSPRTC. Triplicate PCR products were cotransfected into MT4 cells with the linearised plasmid pHXBTOPO1, in the case of the PMR products, and with linearised pHXBΔCSPRTC in for the RVA products. Viral cytopathic effect was observed and titratable virus was harvested in the supernatants. No virus was isolated from virus 2 using FPH and only one of the triplicate cultures from virus 3 yielded infectious virus. All of the RVA cultures produced virus.
(§4) In order to determine whether the extra sequences in the FPH recombinants contain determinants of susceptibility, the recombinant viruses were tested against several drugs. Drug susceptibility was determined by the 3-(4,5dimethylthiazol-2-yl)-2,5-diphenyltetrazolium bromide (MTT)-reduction calorimetric cell viability assay described previously (Pauwels et al. 1988; Robinson et al., 2000). Changes in susceptibility were defined as fold increase in IC50 relative to WT (HXB2). Nucleotide sequences were determined using ABI 3700 capillary sequencers and Big Dye terminators. […] Virus 1 also gave a 2.2-fold (Table 3A) or 4-fold (Table 3B) higher susceptibility to IDV and 2.9-fold (Table 3A) or 3.2-fold higher susceptibility to APV when generated by RVA.

HXB2 = experiment: MTT-reduction cell viability drug susceptibility assay, wild type HXB2 (Table 3A); conditions: for EC50: HXB2 wild type; for fold resistance: HXB2 wild type (reference)
Protocol: as §1, §4

[2] = tested on: Virus 3 (recombinant generated from plasma of Subject 3 by FPH or RVA); experiment: MTT-reduction cell viability drug susceptibility assay, recombinant Virus 3 (FPH or RVA); conditions: for EC50 / fold resistance: Table 3A; for fold resistance: relative to WT (HXB2)
Protocol: as §1, §2, §3, §4

[3] = tested on: Virus 2 (recombinant generated from plasma of Subject 2 by RVA); experiment: MTT-reduction cell viability drug susceptibility assay, recombinant Virus 2 (RVA); conditions: for EC50 / fold resistance: Table 3A, Virus 2, method RVA; for fold resistance: relative to WT (HXB2)
Protocol: as §1, §2, §3, §4

[4] = tested on: Virus 5.1 (FPH), 5.2 (RVA); experiment: MTT-reduction cell viability drug susceptibility assay, viruses 5.1 and 5.2 (Table 3B); conditions: for EC50: Human immunodeficiency virus 1, Table 3B; for fold resistance: Table 3B, relative to WT
Protocol: as §1, §3, §4

[5] = tested on: Virus 4.1, 4.2, 4.3 (recombinants by RVA); experiment: MTT-reduction cell viability drug susceptibility assay, viruses 4.1-4.3 (Table 3B); conditions: for EC50: Human immunodeficiency virus 1, Table 3B; for fold resistance: Table 3B, relative to WT
Protocol: as §1, §3, §4

[6] = tested on: WT (HXB2) generated by FPH or RVA; experiment: MTT-reduction cell viability drug susceptibility assay, WT (Table 3B); conditions: for EC50: Human immunodeficiency virus 1, HXB2, Table 3B; for fold resistance: Table 3B
Protocol: as §1, §4

[7] = tested on: recombinant viruses generated by FPH or RVA; experiment: Comparison of drug susceptibility of FPH generated and RVA generated viruses; conditions: two separate experiments (tables 3A and B)
Protocol: as §1
In order to determine whether the extra sequences in the FPH recombinants contain determinants of susceptibility, the recombinant viruses were tested against several drugs. Drug susceptibility was determined by the 3-(4,5dimethylthiazol-2-yl)-2,5-diphenyltetrazolium bromide (MTT)-reduction calorimetric cell viability assay described previously (Pauwels et al. 1988; Robinson et al., 2000). […] Nucleotide sequences were determined using ABI 3700 capillary sequencers and Big Dye terminators. […]

[8] = tested on: Virus 3.1, 3.2, 3.3 (recombinants by FPH or RVA); experiment: MTT-reduction cell viability drug susceptibility assay, viruses 3.1-3.3 (Table 3B); conditions: for fold resistance: Table 3B, relative to WT
Protocol: as §1, §3, §4

CC(C)c1nc(CN(C)C(=O)N[C@H](C(=O)N[C@@H](Cc2ccccc2)C[C@H](O)[C@H](Cc2ccccc2)NC(=O)OCc2cncs2)C(C)C)cs1 [RTV]
EC50 ([1]; Virus 1, method FPH): 205 nM | fold resistance ([1]; Virus 1, method FPH): (3.1) fold | EC50 ([1]; Virus 1, method RVA): 90.4 nM | fold resistance ([1]; Virus 1, method RVA): (1.4) fold | EC50 (HXB2): 65.1 nM | fold resistance (HXB2): (1.0) fold | EC50 ([2]; Virus 3, method FPH): 1790 nM | fold resistance ([2]; Virus 3, method FPH): (27) fold | EC50 ([2]; Virus 3, method RVA): 1400 nM | fold resistance ([2]; Virus 3, method RVA): (22) fold | EC50 [3]: 454 nM | fold resistance [3]: (7.0) fold

CC(C)(C)NC(=O)[C@@H]1C[C@@H]2CCCC[C@@H]2CN1C[C@@H](O)[C@H](Cc1ccccc1)NC(=O)[C@H](CC(N)=O)NC(=O)c1ccc2ccccc2n1 [SQV]
EC50 ([1]; Virus 1, method FPH): 13.1 nM | fold resistance ([1]; Virus 1, method FPH): (1.0) fold | EC50 ([1]; Virus 1, method RVA): 6.56 nM | fold resistance ([1]; Virus 1, method RVA): (0.5) fold | EC50 (HXB2): 13.1 nM | fold resistance (HXB2): (1.0) fold | EC50 ([2]; Virus 3, method FPH): 16.4 nM | fold resistance ([2]; Virus 3, method FPH): (1.3) fold | EC50 ([2]; Virus 3, method RVA): 13.7 nM | fold resistance ([2]; Virus 3, method RVA): (1.0) fold | EC50 [3]: 9.06 nM | fold resistance [3]: (0.69) fold

Cc1cn([C@H]2C[C@H](N=[N+]=[N-])[C@@H](CO)O2)c(=O)[nH]c1=O [ZDV, zidovudine]
fold higher susceptibility when generated by RVA than when generated by FPH ([1]; virus 1, Table 3B experiment): 4.8 fold | EC50 ([4]; Virus 5.1, method FPH): 48.2 nM | EC50 ([4]; Virus 5.2, method RVA): 16.5 nM | fold resistance ([4]; Virus 5.1, method FPH): (1.7) fold | fold resistance ([4]; Virus 5.2, method RVA): (−1.9) fold | EC50 ([5]; Virus 4.1, method RVA): > 5000 nM | EC50 ([5]; Virus 4.2, method RVA): > 5000 nM | EC50 ([5]; Virus 4.3, method RVA): > 5000 nM | fold resistance ([5]; Virus 4.1, method RVA): (>163) fold | fold resistance ([5]; Virus 4.2, method RVA): (>163) fold | fold resistance ([5]; Virus 4.3, method RVA): (>163) fold | EC50 ([6]; method FPH): 28.3 nM | EC50 ([6]; method RVA): 30.7 nM | fold resistance ([6]; method FPH (reference)): (1.0) fold | fold resistance ([6]; method RVA (reference)): (1.0) fold | Susceptibility in FPH generated versus RVA generated viruses [7]: lower in the FPH generated than the RVA generated viruses | EC50 ([8]; Human immunodeficiency virus 1, Table 3B, Virus 3.1, method FPH, read-out: Drug EC50): 76.1 nM | EC50 ([8]; Human immunodeficiency virus 1, Table 3B, Virus 3.2, method FPH, read-out: Drug EC50): 65.3 nM | EC50 ([8]; Human immunodeficiency virus 1, Table 3B, Virus 3.3, method FPH, read-out: Drug EC50): 35.1 nM | EC50 ([8]; Human immunodeficiency virus 1, read-out: Drug EC50, Table 3B, Virus 3.1, method RVA): 12.3 nM | fold resistance ([8]; Virus 3.1, method FPH): (2.7) fold | fold resistance ([8]; Virus 3.1, method RVA): (−2.5) fold | fold resistance ([8]; Virus 3.2, method FPH): (2.3) fold | fold resistance ([8]; Virus 3.3, method FPH): (1.2) fold | difference in susceptibility between the two techniques (RVA vs FPH) ([2]; virus 3, Table 3B experiment): 2.9 fold | resistance, fold higher than wild-type ([3]; Virus 2 obtained via the RVA, Table 3B experiment): > 84 fold
